pKi: −log10 of the molar value. Read-outs that look alike come from different tables or passages of the source.
What was measured:
rat orexin 1 receptor = rat orexin 1 receptor (Rattus norvegicus, UniProt P56718); assay: Rat orexin 1 receptor radioligand binding (competitive, [3H]-SB674042, HEK293 cell preparations)
human orexin 2 receptor = human orexin 2 receptor (Homo sapiens (Human), UniProt O43614); assay: Human orexin 2 receptor radioligand binding (competitive, [3H]-EMPA, HEK293 cell preparations)
Chain of human orexin 2 receptor (O43614 whole entry): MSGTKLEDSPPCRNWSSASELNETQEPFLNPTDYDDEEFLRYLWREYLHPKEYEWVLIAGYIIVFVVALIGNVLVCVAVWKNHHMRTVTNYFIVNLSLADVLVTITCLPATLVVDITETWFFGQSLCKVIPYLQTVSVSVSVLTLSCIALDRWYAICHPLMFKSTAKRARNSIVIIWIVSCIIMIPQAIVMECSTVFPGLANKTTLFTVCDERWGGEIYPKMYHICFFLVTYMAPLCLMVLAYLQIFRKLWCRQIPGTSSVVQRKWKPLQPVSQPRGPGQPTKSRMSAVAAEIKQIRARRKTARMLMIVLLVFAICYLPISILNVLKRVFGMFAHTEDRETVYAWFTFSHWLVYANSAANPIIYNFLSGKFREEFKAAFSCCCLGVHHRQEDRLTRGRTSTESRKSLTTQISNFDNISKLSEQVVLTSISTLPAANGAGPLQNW

[1] = rat orexin 1 receptor, [3H]-SB674042 competition binding, read-out: rOX1 Ki (nm)
[2] = human orexin 2 receptor, [3H]-EMPA competition binding, read-out: hOX2 Ki (nm)

Compound	pKi (rat orexin 1 receptor; [1])	pKi (human orexin 2 receptor; [2])	pKi (rat orexin 1 receptor; rOX1 Ki (nm))	pKi (human orexin 2 receptor; hOX2 Ki (nm))
CCOc1ccnc(Cl)c1C(=O)N1C2CCC1C(COc1ccccn1)C2 (racemic) [Example 162, (±)-(2-chloro-4-ethoxypyridin-3-yl)(2-((pyridin-2-yloxy)methyl)-7-azabicyclo[2.2.1]heptan-7-yl)methanone]	5.07	< 5.00		
O=C(c1cc(F)ccc1-n1nccn1)N1C2CCC1C(CNc1cnc3ccccc3n1)C2 (racemic) [Example 174, (±)-(5-fluoro-2-(2H-1,2,3-triazol-2-yl)phenyl)(2-((quinoxalin-2-ylamino)methyl)-7-azabicyclo[2.2.1]heptan-7-yl)methanone]	6.43	6.00		
Cc1ccc(-c2ncccn2)c(C(=O)N2C3CCC2C(COc2ncc(F)cn2)C3)n1 (racemic) [Example 175, (±)-(2-(((5-fluoropyrimidin-2-yl)oxy)methyl)-7-azabicyclo[2.2.1]heptan-7-yl)(6-methyl-3-(pyrimidin-2-yl)pyridin-2-yl)methanone]		5.40	5.60	
Cc1coc(-c2ccc(C)nc2C(=O)N2C3CCC2C(COc2ccc(F)cn2)C3)n1 (racemic) [Example 177, (±)-(2-(((5-fluoropyridin-2-yl)oxy)methyl)-7-azabicyclo[2.2.1]heptan-7-yl)(6-methyl-3-(4-methyloxazol-2-yl)pyridin-2-yl)methanone]	6.27	5.40		
Cc1cnc(C(=O)N2C3CCC2C(Nc2cnc(C(F)(F)F)cn2)C3)c(-n2ccnn2)c1 (racemic) [Example 185, (±)-(5-methyl-3-(1H-1,2,3-triazol-1-yl)pyridin-2-yl)(2-(5-(trifluoromethyl)pyrazin-2-yl)amino)-7-azabicyclo[2.2.1]heptan-7-yl)methanone]	5.82	5.57		
Cc1cnc(C(=O)N2C3CCC2C(Nc2ccc(C(F)(F)F)cn2)C3)c(-n2nccn2)c1 (racemic) [Example 188, (±)-(5-methyl-3-(2H-1,2,3-triazol-2-yl)pyridin-2-yl)(2-(5-(trifluoromethyl)pyridin-2-yl)amino)-7-azabicyclo[2.2.1]heptan-7-yl)methanone]		5.82	6.53	
Cc1ccc(C(=O)N2C3CCC2C(Nc2ccc(C(F)(F)F)cn2)C3)c(-n2nccn2)n1 (racemic) [Example 189, (±)-(6-methyl-2-(2H-1,2,3-triazol-2-yl)pyridin-3-yl)(2-(5-(trifluoromethyl)pyridin-2-yl)amino)-7-azabicyclo[2.2.1]heptan-7-yl)methanone]	6.12			5.82
Cc1ccc(C(=O)N2C3CCC2C(Nc2ccc(C(F)(F)F)cn2)C3)c(-n2ccnn2)n1 (racemic) [Example 190, (±)-(6-methyl-2-(1H-1,2,3-triazol-1-yl)pyridin-3-yl)(2-(5-(trifluoromethyl)pyridin-2-yl)amino)-7-azabicyclo[2.2.1]heptan-7-yl)methanone]		5.92	6.23	
COc1ccc(C(=O)N2C3CCC2C(Nc2ccc(C(F)(F)F)cn2)C3)c(-n2nccn2)c1 (racemic) [Example 191, (±)-(4-methoxy-2-(2H-1,2,3-triazol-2-yl)phenyl)(2-(5-(trifluoromethyl)pyridin-2-yl)amino)-7-azabicyclo[2.2.1]heptan-7-yl)methanone]		5.06	6.59	
COc1c(F)cccc1C(=O)N1C2CCC1C(Nc1ccc(C(F)(F)F)cn1)C2 (racemic) [Example 193, (±)-((3-fluoro-2-methoxyphenyl)(2-(5-(trifluoromethyl)pyridin-2-yl)amino)-7-azabicyclo[2.2.1]heptan-7-yl)methanone]	5.54	< 5.00		
CCOc1ccc(C)nc1C(=O)N1C2CCC1C(Nc1ccc(C(F)(F)F)cn1)C2 (racemic) [Example 194, (±)-(3-ethoxy-6-methylpyridin-2-yl)(2-(5-(trifluoromethyl)pyridin-2-yl)amino)-7-azabicyclo[2.2.1]heptan-7-yl)methanone]		6.10	6.35	
Cc1cc(C)nc(NC2CC3CCC2N3C(=O)c2nc(C)ccc2-c2ncccn2)n1 (racemic) [Example 200, (±)-(2-(((4,6-dimethylpyrimidin-2-yl)amino)-7-azabicyclo[2.2.1]heptan-7-yl)(6-methyl-3-(pyrimidin-2-yl)pyridin-2-yl)methanone]	5.96	6.26		
Cc1cc(C)nc(NC2CC3CCC2N3C(=O)c2nc(C)ccc2-n2nccn2)n1 (racemic) [Example 201, (±)-(2-((4,6-dimethylpyrimidin-2-yl)amino)-7-azabicyclo[2.2.1]heptan-7-yl)(6-methyl-3-(2H-1,2,3-triazol-2-yl)pyridin-2-yl)methanone]	5.43	5.96		
Cc1cc(C)nc(NC2CC3CCC2N3C(=O)c2ccccc2-n2nccn2)n1 (racemic) [Example 202, (±)-(2-(2H-1,2,3-triazol-2-yl)phenyl)(2-(((4,6-dimethylpyrimidin-2-yl)amino)-7-azabicyclo[2.2.1]heptan-7-yl)methanone]	6.12			6.35
CCOc1ccc(C)nc1C(=O)N1C2CCC1C(Nc1nc(C)cc(C)n1)C2 (racemic) [Example 203, (±)-(2-((4,6-dimethylpyrimidin-2-yl)amino)-7-azabicyclo[2.2.1]heptan-7-yl)(3-ethoxy-6-methylpyridin-2-yl)methanone]	< 5.00	6.31		
O=C(c1ccccc1-n1nccn1)N1C2CCC1C(Nc1cccc(C(F)(F)F)n1)C2 (racemic) [Example 209, (±)-(2-(2H-1,2,3-triazol-2-yl)phenyl)(2-(6-(trifluoromethyl)pyridin-2-yl)amino)-7-azabicyclo[2.2.1]heptan-7-yl)methanone]	5.96	6.13		
O=C(c1ccccc1-n1nccn1)N1C2CCC1C(Nc1ccc(C(F)(F)F)nn1)C2 (racemic) [Example 212, (±)-(2-(2H-1,2,3-triazol-2-yl)phenyl)(2-(6-(trifluoromethyl)pyridazin-3-yl)amino)-7-azabicyclo[2.2.1]heptan-7-yl)methanone]	6.13			5.31
COc1ccc(NC2CC3CCC2N3C(=O)c2ccccc2-n2nccn2)nc1 (racemic) [Example 213, (±)-(2-(2H-1,2,3-triazol-2-yl)phenyl)(2-((5-methoxypyridin-2-yl)amino)-7-azabicyclo[2.2.1]heptan-7-yl)methanone]	5.55	5.12		
Cc1ccc(NC2CC3CCC2N3C(=O)c2ccccc2-n2nccn2)nc1 (racemic) [Example 214, (±)-(2-(2H-1,2,3-triazol-2-yl)phenyl)(2-(((5-methylpyridin-2-yl)amino)-7-azabicyclo[2.2.1]heptan-7-yl)methanone]			6.30	5.51
O=C(c1ccccc1-n1nccn1)N1C2CCC1C(Nc1ccccn1)C2 (racemic) [Example 215, (±)-(2-(2H-1,2,3-triazol-2-yl)phenyl)(2-(pyridin-2-ylamino)-7-azabicyclo[2.2.1]heptan-7-yl)methanone]	5.77	5.05		
COc1c(F)cccc1C(=O)N1C2CCC1C(Nc1ccc(Br)cn1)C2 (racemic) [Example 218, (±)-(2-((5-bromopyridin-2-yl)amino)-7-azabicyclo[2.2.1]heptan-7-yl)(3-fluoro-2-methoxyphenyl)methanone]		5.17	5.57	
CCOc1ccc(C)nc1C(=O)N1C2CCC1C(Nc1ccc(Br)cn1)C2 (racemic) [Example 219, (±)-(2-((5-bromopyridin-2-yl)amino)-7-azabicyclo[2.2.1]heptan-7-yl)(3-ethoxy-6-methylpyridin-2-yl)methanone]	6.59	5.77		
COc1c(F)cccc1C(=O)N1C2CCC1C(Nc1ncc(C(F)(F)F)cn1)C2 (racemic) [Example 222, (±)-(3-fluoro-2-methoxyphenyl)(2-(5-(trifluoromethyl)pyrimidin-2-yl)amino)-7-azabicyclo[2.2.1]heptan-7-yl)methanone]		< 5.00	5.32	
Cc1ccc(-n2nccn2)c(C(=O)N2C3CCC2C(Nc2ncc(C(F)(F)F)cn2)C3)n1 (racemic) [Example 223, (±)-(6-methyl-3-(2H-1,2,3-triazol-2-yl)pyridin-2-yl)(2-((5-(trifluoromethyl)pyrimidin-2-yl)amino)-7-azabicyclo[2.2.1]heptan-7-yl)methanone]		5.40	6.26	
Cc1ccc(-c2ncccn2)c(C(=O)N2C3CCC2C(Nc2ncc(C(F)(F)F)cn2)C3)n1 (racemic) [Example 225, (±)-(6-methyl-3-(pyrimidin-2-yl)pyridin-2-yl)(2-(5-(trifluoromethyl)pyrimidin-2-yl)amino)-7-azabicyclo[2.2.1]heptan-7-yl)methanone]	6.28	5.48		
COc1c(F)cccc1C(=O)N1C2CCC1C(Nc1ncc(C(F)(F)F)cn1)C2 (racemic) [Example 226, (±)-(3-fluoro-2-methoxyphenyl)(2-(5-(trifluoromethyl)pyrimidin-2-yl)amino)-7-azabicyclo[2.2.1]heptan-7-yl)methanone]		< 5.00	< 5.00	
Cc1ccc(-n2nccn2)c(C(=O)N2C3CCC2C(Nc2ncc(C(F)(F)F)cn2)C3)n1 (racemic) [Example 228, (±)-(6-methyl-3-(2H-1,2,3-triazol-2-yl)pyridin-2-yl)(2-((5-(trifluoromethyl)pyrimidin-2-yl)amino)-7-azabicyclo[2.2.1]heptan-7-yl)methanone]		< 5.00	< 5.00	
Cc1ccc(-n2nccn2)c(C(=O)N2C3CCC2C(Nc2cnc4ccccc4n2)C3)n1 (racemic) [Example 230, (±)-(6-methyl-3-(2H-1,2,3-triazol-2-yl)pyridin-2-yl)(2-(quinoxalin-2-ylamino)-7-azabicyclo[2.2.1]heptan-7-yl)methanone]			< 5.00	< 5.00
COc1c(F)cccc1C(=O)N1C2CCC1C(Nc1ccc(F)cn1)C2 (racemic) [Example 237, (±)-(3-fluoro-2-methoxyphenyl)(2-(((5-fluoropyridin-2-yl)amino)-7-azabicyclo[2.2.1]heptan-7-yl)methanone]			< 5.00	< 5.00
